For data set [1], the system named is TPA (Tumor Promoter) Stimulation of Mouse Epidermal DNA. The data set is described as follows: Inhibition of TPA stimulation of mouse epidermal DNA synthesis (3H-thymidine incorporation), oral. In kind it is in vivo, mouse (ICR male). An excerpt: Synthesis rate by orally administered steroids.
The inhibition of tumor promoter stimulation of mouse epidermal DNA synthesis rate by steroids may also contribute to cancer preventive activity. The following assay is used:
(§1) ICR male mice (7-9 weeks old) were shaved on the back 1-2 days before use. Only mice showing no hair regrowth were used. Animals were orally intubated with a particular steroid suspended by homogenization in sesame oil or with sesame oil alone (controls). One hour later TPA (10 μg in 0.2 ml of acetone) or acetone vehicle was applied topically to the shaved skin. Twenty hours later, mice were injected i.p. with 60 μCi of ^3 H-thymidine 20 minutes before sacrifice. The animals were killed by cervical dislocation and the residual hair was removed with a depilatory agent. Epidermal scrapings were prepared according to the procedures of Hennings et al. (Cancer Res. 28, 53, 1968), homogenized in distilled water at 4° C., and the macromolecules precipitated with 0.4N trichloroacetic acid (TCA). Following 6 washes with absolute ethanol at room temperature, the nucleic acids were hydrolyzed with 0.5N TCA at 70° C. for 5 minutes. The hydrolysate (0.2 ml aliquots) were counted in an Intertechnique scintillation counter and assayed for DNA by the diphenylamine reaction.
(§2) The data are expressed as counts per minute (cpm) of tritium per μg of DNA.
A similar oral dose-response experiment with compound 16 and DHEA was performed.
Both of the above tests, i.e., the inhibition of mammalian glucose-6-phosphate dehydrogenase (G6PDH) and the inhibition of tumor promoter (TPA) stimulation of ^3 H-thymidine incorporation in mouse epidermis are recognized as indicators of cancer prophylactic activity. The following Table compares the efficacy of representative compounds of the present invention in these two tests with that of DHEA:
Male ICR mice were orally intubated with steroid suspended in sesame oil (0.5 ml/mouse) at the indicated dose. Mice not receiving steroid were given sesame oil alone. One hour later mice received topical application of TPA and 20 hours later the rate of ^3 H-thymidine incorporation into the epidermis was determined as described in Table 4.
Male ICR mice were orally intubated with steroid suspended in sesame oil (0.5 ml/mouse) at the indicated dose. Mice not receiving steroid were given sesame oil alone. One hour later mice received topical application of TPA, and 20 hours later the rate of ^3 H-thymidine incorporation into the epidermis was determined as described in Table 4.
Background: Dividing cells build labelled thymidine or BrdU into new DNA.

The test system of data set [2] is TPA stimulation in DNA synthesis rate (mouse epidermis). The experiment in a line: Inhibition of TPA stimulation of mouse epidermal DNA synthesis, intraperitoneal. In kind it is in vivo, mouse (ICR male). The settings on record: i.p. dose-response. The procedure:
as §1, §2
Compound 2 or 3 in comparison with DHEA by Intraperitoneal Injection.
Steroids were suspended in sterile 95% saline--5% Emulphor and injected intraperitoneally. Otherwise conditions were the same as when steroids were orally administered.

Data set [3] has as its target T1, purified bovine adrenal G6PDH (Bos taurus, UniProt F1MMK2).
T1 construct: full-length, wild type, no tag
The experiment in a line: Inhibition of purified bovine adrenal G6PDH. The settings on record: for inhibition at 1 µM: Conc. 1 μm; for inhibition at 10 µM: Conc. 10 μm. In kind it is biochemical. An excerpt:
The compounds listed below are screened as inhibitors of purified bovine adrenal G6PDH activity as one predictor of cancer preventive action. The assay for testing the inhibition of purified bovine adrenal G6PDH is according to the procedure by Oertel, G. W. and Rebelein, I. in Biochem. Biophys. Acta, 184, 459-460 (1969). The results are given below in Table I:
Both of the above tests, i.e., the inhibition of mammalian glucose-6-phosphate dehydrogenase (G6PDH) and the inhibition of tumor promoter (TPA) stimulation of ^3 H-thymidine incorporation in mouse epidermis are recognized as indicators of cancer prophylactic activity. The following Table compares the efficacy of representative compounds of the present invention in these two tests with that of DHEA: […]

Data set [4] can be described thus: Anti-obesity test (body weight, food consumption). The conditions noted are these: for mean weekly weight: n = 5; for weekly weight (Table 13): 0.54% in food. In kind it is in vivo, mouse (male A/J). As for the experimental part: Male A/J mice (5 weeks old) were obtained from the Jackson Laboratory and were housed in polycarbonate cages (5 mice/cage) in animal quarters maintained at 24°±1° C. with 12 hours of light and 12 hours of darkness each day. One week after arrival, the mice were placed on a chow diet containing varying concentrations of DHEA or other steroid. Animals were weighed weekly; food consumption was determined weekly by subtracting the amount of food remaining in the cage from the amount added.
Male A/J (5 weeks old) were obtained from the Jackson Laboratory and were housed in polycarbonate cages (5 mice/cage) in animal quarters maintained at 24°±1° C. with 12 hours of light and 12 hours of darkness each day. One week after arrival, the mice were placed on a diet containing either DHEA, 19, or without steroid. Animals were weighed weekly. The concentration of DHEA or 19 used in the food was 0.54%.
Male A/J mice (5 weeks old) were obtained from the Jackson Laboratory and were housed in polycarbonate cages (5 mice/cage) in animal quarters maintained at 24°±1° C. with 12 hours of light and 12 hours of darkness each day. One week after arrival, the mice were placed on a show diet containing DHEA, 16, or 21 at 0.36%. Animals were weighed weekly.

The subject of data set [5] is seminal vesicles plus prostate glands. The data set is described as follows: Androgenic and anti-androgenic activity (seminal vesicle plus prostate weight). In kind it is in vivo, mouse (male A/J). The settings on record: con't. experiment; five weeks; DHEA 0.54%; n = 5.
Data set [6] has as its system [3H]DMBA binding to skin DNA. The experiment in a line: [3H]DMBA binding to skin DNA, oral steroid. In kind it is in vivo, mouse (male A/J). The settings on record: 400 mg/kg p.o.; 12 hours. As for the experimental part: Male A/J mice were orally intubated with steroid suspended in sesame oil (0.5 ml/mouse) at the indicated dose. Mice not receiving steroid were given sesame oil alone. Food restricted mice received approximately 60% of food of Ad libitum fed for two weeks. One hour after oral intubation, topical [^3 H]DMBA was applied to the skin, and the amount bound to DNA was determined 12 hours later as described in Table 4.
Male A/J mice were orally intubated with steroid suspended in sesame oil (0.5 ml/mouse) at the indicated dose. Mice not receiving steroid were given sesame oil alone. One hour after oral intubation, topical [^3 H]DMBA was applied to the skin, and the amount bound to DNA was determined 12 hours later as described in Table 4.

Data set [7] concerns seminal vesicles plus prostate glands. The experiment in a line: Androgenic and anti-androgenic activity (seminal vesicle plus prostate weight). The settings on record: diet, male A/J mice. In kind it is in vivo, mouse (male A/J). As for the experimental part:
Male A/J mice (5 weeks old) were obtained from the Jackson Laboratory and were housed in polycarbonate cages (5 mice/cage) in animal quarters maintained at 24°±1° C. with 12 hours of light and 12 hours of darkness each day. One week after arrival, mice were placed on a chow diet containing either 0.18% or 0.09% 16 or without steroid. Mice were weighed weekly. After 4 weeks, the mice were killed, and the seminal vesicles plus prostate glands were dissected out and weighed.
(§3) (a) Male A/J mice (5 weeks old) were obtained from the Jackson Laboratory and were housed in polycarbonate cages (5 mice/cage) in animal quarters maintained at 24°[…] C. with 12 hours of light and 12 hours of darkness each day. One week after arrival, the mice were placed on a chow diet containing one of the test compounds of the present invention at 0.36%. After 4 weeks of treatment, the above mice were killed, and the seminal vesicles and prostate glands were dissected out and weighed.

Another data set has as its system rat uterus. The data set is described as follows: Estrogenic and anti-estrogenic activity (uterine weight, s.c., CD rats). In kind it is in vivo, rat (female CD). The procedure: Female CD rats, 26-27 days old, were used. Rats were injected subcutaneously for 3 days with either DHEA or 16 in propylene glycol. Control rats received propylene glycol alone. The rats were killed on the 4th day and the uteri were removed and weighed.
Female CD rats, 26-27 days old, were injected subcutaneously for 3 days with one of the compounds of the present invention at 60 mg/kg in propylene glycol. Controls received propylene glycol alone. On the 4th day the rats were killed and the uteri were dissected out and weighed.

The test system of data set [8] is rat uterus; mouse seminal vesicle plus prostate. The data set is described as follows: Sex steroid hormonal or anti-hormonal activity (estrogenic, anti-estrogenic, androgenic, anti-androgenic). The conditions noted are these: in vivo. The procedure: Female CD rats, 26-27 days old, were injected subcutaneously for 3 days with one of the compounds of the present invention at 60 mg/kg in propylene glycol. Controls received propylene glycol alone. On the 4th day the rats were killed and the uteri were dissected out and weighed. The results are given below:
as §3

Where [9] appears, read: read-out: Percent Inhibition (G6PDH).

T1 sequence (F1MMK2 31-70): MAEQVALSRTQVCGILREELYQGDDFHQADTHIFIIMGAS
T1 sequence (F1MMK2 101-575): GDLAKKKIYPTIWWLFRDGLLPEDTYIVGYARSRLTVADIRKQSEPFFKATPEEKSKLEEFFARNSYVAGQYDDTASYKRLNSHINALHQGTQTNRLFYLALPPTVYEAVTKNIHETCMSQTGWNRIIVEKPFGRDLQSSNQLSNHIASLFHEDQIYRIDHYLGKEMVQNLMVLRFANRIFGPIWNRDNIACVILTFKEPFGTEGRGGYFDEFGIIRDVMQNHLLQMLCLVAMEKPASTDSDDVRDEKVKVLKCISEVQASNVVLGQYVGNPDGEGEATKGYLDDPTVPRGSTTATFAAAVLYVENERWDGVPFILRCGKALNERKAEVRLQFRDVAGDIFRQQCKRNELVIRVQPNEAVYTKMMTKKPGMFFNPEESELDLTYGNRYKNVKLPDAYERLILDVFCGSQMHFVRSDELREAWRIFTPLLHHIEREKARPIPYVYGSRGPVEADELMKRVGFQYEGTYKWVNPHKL

As to `C[C@]12CCCC[C@@H]1CC[C@@H]1[C@@H]2CC[C@]2(C)C(=O)CC[C@@H]12` [Compound 3], in data set [1] (200 mg/kg oral), the “activity compared with DHEA, TPA stimulation (in words)” value was “somewhat more active than DHEA”. Also, the “blocking the TPA stimulation in DNA synthesis rate, compared with DHEA (in words)” value in [2] is reported as “more active in blocking the TPA stimulation in DNA synthesis rate”. Also, the inhibition at 0.1 µM in [3] (Conc. 0.1 μm, read-out: Percent Inhibition (G6PDH)) turned out to be 10%. The inhibition at 1 µM in data set [3] (setting [9]) came to 69%. The inhibition at 10 µM in data set [3] (setting [9]) was 80%. For the same compound, the mean weekly weight came out at 21.8 ± 2.2 grams in data set [4] (0.35% of diet, week 0); 22.6 ± 1.8 grams in data set [4] (0.35% of diet, week 1); 23.6 ± 1.8 grams in [4] (0.35% of diet, week 2); 24.8 ± 1.8 grams in data set [4] (0.35% of diet, week 3); 24.6 ± 1.8 grams in data set [4] (0.35% of diet, week 4); 24.8 ± 1.9 grams in data set [4] (0.35% of diet, week 5). Also, the mean weekly weight in data set [4] (0.7% of diet, week 0) was 21.6 ± 2.6 grams; in data set [4] (0.7% of diet, week 1) it was 20.0 ± 1.9 grams; in data set [4] (0.7% of diet, week 2) it was 21.3 ± 1.8 grams; in data set [4] (0.7% of diet, week 3) it was 21.8 ± 1.6 grams; in data set [4] (0.7% of diet, week 4), 22.0 ± 1.6 grams; in [4] (0.7% of diet, week 5), 21.4 ± 1.1 grams.
For `C[C@H]1CC[C@@]2(C)C(=CC[C@@H]3[C@@H]2CC[C@]2(C)C(=O)[C@H](O)C[C@@H]32)C1` [Compound 19], the “TPA stimulation in 3H-thymidine incorporation (in words)” value in data set [1] (oral, single administration) is recorded as “to a degree comparable to that produced by food restriction at doses well below 400 mg/kg”. Moreover, the “Mean Seminal Vesicle plus Prostate Weight ± S.D.” value in data set [5] was determined as 6.45 ± 0.65 mg/100 gm body weight. Also, the “SPECIFIC ACTIVITY ([3H]DMBA bound to skin DNA)” value in data set [6] stood at 20.4 ± 1.1 cpm/ug DNA. Moreover, the “androgenic / anti-androgenic effect, seminal vesicle plus prostate weight (in words)” value in data set [7] is reported as “no significant effect on seminal vesicle plus prostate gland weight”. For the same compound, in the data set on rat uterus (60 mg/kg s.c., 3 days, Tables 16 and 17), the “Mean Uterine Weight ± S.D.” value was 2.16 ± 0.5 mg/100 gm body weight. The “estrogenic / anti-estrogenic effect, uterine weight (in words)” value with rat uterus (s.c., 60 mg/kg or higher, female CD rats) is reported as “no apparent estrogenic nor anti-estrogenic activity”. Also, the “G6PDH inhibition compared with DHEA (in words)” value in data set [3] is given as “more effective inhibitorsof G6PDH than is DHEA”. In addition, the inhibition at 1 µM in data set [3] (setting [9]) is 29%. The inhibition at 10 µM in data set [3] (setting [9]) worked out at 64%. In addition, in data set [4] (400 mg/kg repeated (DHEA), cancer preventive dosages (19, 20)), the “anti-weight effect (in words)” value is recorded as “do not produce an anti-weight effect”. Besides, the “weekly weight (Table 13)” value in [4] (week 0) is recorded as 21.1 ± 0.8; in data set [4] (week 1) it was 19.1 ± 0.9; in [4] (week 2), 18.4 ± 1.0; in data set [4] (week 3), 18.7 ± 1.4; in [4] (week 4), 19.7 ± 1.1; in data set [4] (week 5) it was 20.6 ± 0.4. Also, the “estrogenic, anti-estrogenic, androgenic, anti-androgenic activity (in words)” value in [8] is “neither estrogenic, anti-estrogenic, androgenic, nor anti-androgenic activity”.

The inhibition is the change of the read-out against control, counted positive when it falls.

The values are drawn from patent publication US5804576A, “Derivatives of 5-androsten-17-ones and 5-androstan-17-ones” (Research Corporation Technologies, Inc., priority 1986, dated 1998).
